In patent publication US4839387A, “Derivative of thiazolidine-4-carboxylic acid, its preparation and pharmaceutical compositions containing it” (Poli Industria Chimica S.P.A., priority 1987, dated 1989):
Non-standard residues stand in square brackets, D forms with d. Residues, ends and D or L forms follow the SMILES beside them. pGlu = O=C1CC[C@@H](C(=O)O)N1; Thz = O=C(O)[C@@H]1CSCN1

How the values were obtained:
[1] = system: Male Wistar rats; assay: Paracetamol intoxication in the rat, test after single i.p. administration; type: in vivo; conditions: for Death rate % / % distribution of liver impairment degrees: degree 0 / % distribution of liver impairment degrees: degree 1 / % distribution of liver impairment degrees: degree 2 / % distribution of liver impairment degrees: degree 3: single administration; for Death rate %: 48 hours after paracetamol 5000 mg/kg oral; for % distribution of liver impairment degrees: degree 0: degree 0 = normal histologic examination; for % distribution of liver impairment degrees: degree 1: degree I = centrolobular necrosis less than 25% of the lobule; for % distribution of liver impairment degrees: degree 2: degree II = extended centrolobular necrosis; for % distribution of liver impairment degrees: degree 3: degree III = massive necrosis
Excerpt: (§1) Male Wistar rats, mean weight of 150±10 g were used, which, after suitable housing, were subjected to the test:
(a) Test after single i.p. administration
The animals were divided in 7 groups, comprising 20 animals each, according to the following scheme:
II group: PGTCA 4.1 μmoles/kg i.p.
III group: PGTCA 41 μmoles/kg i.p.
IV group: PGTCA 205 μmoles/kg i.p.
V group: PGA 4.1 μmoles/kg +TCA 4.1 μmoles/kg
VI group: PGA 41 μmoles/kg +TCA 41 μmoles/kg
VII group: PGA 205 umoles/kg +TCA 205 μmoles/kg.
The animals of each group, fasting since 12 hours, were treated with paracetamol at the dose of 5000 mg/kg by the oral route. The different pharmacological treatments were carried out contemporaneously with the paracetamol administration. After 48 hours from treatment, the death-rate was assessed in the various experimental groups. The liver was taken from the surviving animals, sacrificed by decapitation, and from the dead animals and an histopathologic examination was carried out.
The degree of liver impairment has been evaluated as: degree O: normal histologic examination degree I: centrolobular necrosis extended to less than 25% of the lobule degree II: extended centrolobular necrosis, with lesions bridging adjacent centrolobular areas degree III: massive necrosis.
(§2) In order to evaluate the lesion degree, 6 different sections were taken from each organ.

[2] = system: Male Wistar rats; assay: Paracetamol intoxication in the rat, test after repeated i.p. administration; type: in vivo; conditions: for Death rate %: repeated administration (daily for 8 days and on), 48 hours after paracetamol 5000 mg/kg per os; for % distribution of liver impairment degrees: degree 0 / % distribution of liver impairment degrees: degree 1 / % distribution of liver impairment degrees: degree 2 / % distribution of liver impairment degrees: degree 3: repeated administration; for % distribution of liver impairment degrees: degree 0: degree 0 = normal histologic examination; for % distribution of liver impairment degrees: degree 1: degree I = centrolobular necrosis less than 25% of the lobule; for % distribution of liver impairment degrees: degree 2: degree II = extended centrolobular necrosis; for % distribution of liver impairment degrees: degree 3: degree III = massive necrosis
Excerpt: as §1
The degree of liver impairment has been evaluated as: degree O: normal histologic examination […]
degree II: extended centrolobular necrosis, with lesions bridging adjacent centrolobular areas degree III: massive necrosis.
as §2
(b) Test after repeated i.p. administration
The same treatment schedule as in (a) was used.
The animals of groups II-VII were treated daily for 8 days. At the 8th day, contemporaneously to the various considered pharmacological treatments, the animals of the 7 groups (fasting since 12 hours) were administered with paracetamol (5000 mg/kg per os).
After 48 hours from the paracetamol administration, the surviving animals were examined and the liver was subjected to the histopathologic examination.

[3] = system: Swiss male mice; assay: Effects on the consequences of exposure to ionizing radiation; type: in vivo, mouse; conditions: for Death-rate % 10 gg: 10 days after 700 r of x rays; for Death-rate % 15 gg: 15 days after 700 r of x rays
Procedure: Swiss male mice weighing 30±5 g, divided in 7 groups of 20 animals each, were used according to the above reported schedule.
The pharmacological treatments were carried out for 15 days before the irradiation and prosecuted up to the end of the experiment. The control animals received the vehicle alone.
At the 15th day, all the animals were irradiated (Philip Metalix® apparatus, 180 KV, 15 mA, with Cu filter 0.5 mm +AI mm) with the administration of 700 r of x rays.
All the animals were checked daily, for 15 days after irradiation. The radio-protection degree was calculated as survival % at 10 and 15 days.

[4] = system: male rats; assay: Delayed-type hypersensitivity induced by dinitrochlorobenzene (DNCB); type: in vivo, rat
Procedure: (§3) For this purpose, male adult rats (5-6 months old) were used as animal model with normal immuno-competent system, and old rats (17-18 months) as a paraphysiological immunodeficiency model.
(§4) The PGTCA treatment has been carried out i.p. at the dose of 1, 10 or 50 mg/kg twice a day for 4 weeks. The used immunological tests were the delayed-type hypersensitivity induced by dinitrochlorobenzene (DNCB) and the T-lymphocyte response to concanavaline A (ConA).
After 4 weeks of PGTCA pre-treatment (or vehicle), 0.02 ml of DNCB (solubilized in acetone at the concentration of 200 mg/ml) was applied to each animal (5 rats per group) on the cutis of the back, on an area of about 1 cm^2. The subsequent inflammatory reaction was evaluated by measuring the diameter of the reddish area by means of a thickness gauge from day 1 to day 7.
During this period the animals were constantly treated.

[5] = system: T-lymphocyte response to concanavaline A; assay: Test of blastization with ConA (3H-thymidine incorporation) after in vivo treatment; design: species or system rat; conditions: for 3H-thymidine cpm/well: ConA 2.5 μg/ml; for 3H-thymidine increase %: versus untreated
Procedure: as §3, §4
After 4 weeks of PGTCA treatment at the doses of 1,10 and 50 mg/kg, the animals were sacrificed and the spleen was removed in sterile conditions. The isolation of lymphocytes was obtained by an isolimph gradient. The lymphocytes were incubated in micro-walls, at the concentration of 1×10^6 cells/ml, in the presence of ConA (2.5 μg/ml), for 48 hours. The mitogen activity was evaluated by incorporation of ^3 H-thymidine for 16 hours.

[6] = system: T cells forming rosettes with sheep red blood cells; assay: T-cells forming rosette with sheep red blood cells; type: in vivo, mouse; conditions: for No. rosette/10^6 spleen cells Var. %: versus controls
Procedure: In the mouse, a cytotoxic-kind of hypersensivity reaction, evaluated in the test of T cells forming rosettes with sheep red blood cells, was used (S.D. Wilson Immunology, 1971, 21, 233). […]
CD-I male mice weighing about 25 g are treated with PGTCA for 8 days. After 4 days from the start of the treatment the animals were immunized with 5×10^8 sheep red blood cells in 0.2 ml of PBS i.p. The rosette test was carried out 6 days after the immunization. The mice were killed and the spleen was removed and placed in ice cold Hank solution, triturated, homogenized and gauze filtered.
6×10^7 /ml of spleen cells +100 /μl of red blood cell suspension 3×10^8 /μul were mixed in 0.8 ml of Hank and stirred for 1 min.
The samples were incubated for 24 h at 4° C. without stirring and then, after stirring, the number of rosette forming cells/ml was determined by the Burker apparatus.

[7] = system: old rat; assay: Neurocerebral performances in the old rat; type: in vivo; conditions: 10 mg/kg and even more at 50 mg/kg
[8] = system: male rat; assay: Sexual behaviour of the male rat; type: in vivo; conditions: latencies and frequences of sexual acts
[9] = at the highest and at the intermediate dose
[10] = PGTCA 4.1 microm/kg ip from 15 days before irradiation
[11] = PGTCA 41 microm/kg ip from 15 days before irradiation
[12] = PGTCA 205 microm/kg ip from 15 days before irradiation
[13] = Mice not sensitized with red blood cells, 100 mg/kg b.i.d. i.p. for 8 days

## O=C1CC[C@@H](C(=O)N2CSC[C@H]2C(=O)O)N1 [PGTCA, 3-L-pyroglutamyl-Lthiazolidine-4-carboxylic acid] ([pGlu]-[Thz]-OH)
[1]; acute treatment, 205 μmoles/kg i.p. and 41 μmoles/kg i.p.
  liver impairment by an high dose of paracetamol: significant decrease
[1]; [9]
  death-rate by paracetamol: reduces the death-rate
[1]; PGTCA 4.1 microm/kg ip
  Death rate %: 85%
  % distribution of liver impairment degrees: degree 0: 0%
  % distribution of liver impairment degrees: degree 1: 0%
  % distribution of liver impairment degrees: degree 2: 10%
  % distribution of liver impairment degrees: degree 3: 90%
[1]; PGTCA 41 microm/kg ip
  Death rate %: 75%
  % distribution of liver impairment degrees: degree 0: 0%
  % distribution of liver impairment degrees: degree 1: 5%
  % distribution of liver impairment degrees: degree 2: 20%
  % distribution of liver impairment degrees: degree 3: 75%
[1]; PGTCA 205 microm/kg ip
  Death rate %: 60%
  % distribution of liver impairment degrees: degree 0: 5%
  % distribution of liver impairment degrees: degree 1: 15%
  % distribution of liver impairment degrees: degree 2: 15%
  % distribution of liver impairment degrees: degree 3: 65%
[2]; PGTCA 4.1 microm/kg ip
  Death rate %: 85%
  % distribution of liver impairment degrees: degree 0: 0%
  % distribution of liver impairment degrees: degree 1: 0%
  % distribution of liver impairment degrees: degree 2: 10%
  % distribution of liver impairment degrees: degree 3: 90%
[2]; PGTCA 41 microm/kg ip
  Death rate %: 70%
  % distribution of liver impairment degrees: degree 0: 0%
  % distribution of liver impairment degrees: degree 1: 0%
  % distribution of liver impairment degrees: degree 2: 35%
  % distribution of liver impairment degrees: degree 3: 65%
[2]; PGTCA 205 microm/kg ip
  Death rate %: 50%
  % distribution of liver impairment degrees: degree 0: 5%
  % distribution of liver impairment degrees: degree 1: 15%
  % distribution of liver impairment degrees: degree 2: 25%
  % distribution of liver impairment degrees: degree 3: 55%
[3]; [10]
  Death-rate % 10 gg: 20%
  Death-rate % 15 gg: 45%
[3]; [11]
  Death-rate % 10 gg: 15%
  Death-rate % 15 gg: 20%
[3]; [12]
  Death-rate % 10 gg: 10%
  Death-rate % 15 gg: 15%
[3]; [9]
  radioprotective activity: remarkable radioprotective activity
[4]; old animals, already at the dose of 10 mg/kg
  response to DNCB, evaluated as inflammation area: maximum enhancing increase
[4]; young animals, only at the dose of 50 mg/kg
  response to DNCB, evaluated as inflammation area: significant increase
[5]; Adult rats (5-6 months), 1 mg/kg i.p. twice a day for 4 weeks
  3H-thymidine cpm/well: 31806 ± 970 cpm/well
[5]; Adult rats (5-6 months), 1 mg/kg
  3H-thymidine increase %: -2.1%
[5]; Adult rats (5-6 months), 10 mg/kg i.p. twice a day for 4 weeks
  3H-thymidine cpm/well: 34165 ± 540 cpm/well
[5]; Adult rats (5-6 months), 10 mg/kg
  3H-thymidine increase %: +5.1%
[5]; Adult rats (5-6 months), 50 mg/kg i.p. twice a day for 4 weeks
  3H-thymidine cpm/well: 35785 ± 240 cpm/well
[5]; Adult rats (5-6 months), 50 mg/kg
  3H-thymidine increase %: +10.1%
[5]; Old rats (17-18 months), 1 mg/kg i.p. twice a day for 4 weeks
  3H-thymidine cpm/well: 23553 ± 923 cpm/well
[5]; Old rats (17-18 months), 1 mg/kg
  3H-thymidine increase %: +1.6%
[5]; Old rats (17-18 months), 10 mg/kg i.p. twice a day for 4 weeks
  3H-thymidine cpm/well: 26012 ± 316 cpm/well
[5]; Old rats (17-18 months), 10 mg/kg
  3H-thymidine increase %: +12.3%
[5]; Old rats (17-18 months), 50 mg/kg i.p. twice a day for 4 weeks
  3H-thymidine cpm/well: 27540 ± 439 cpm/well
[5]; Old rats (17-18 months), 50 mg/kg
  3H-thymidine increase %: +18.9%
[6]; [13]
  No. rosette/10^6 spleen cells m ± E.S.: 790 ± 170 rosette/10^6 spleen cells
  No. rosette/10^6 spleen cells Var. %: -12%
[6]; Mice sensitized with red blood cells, 100 mg/kg b.i.d. i.p. for 8 days
  No. rosette/10^6 spleen cells Var. %: +41%
[6]; not sensitized animals
  rosette number in comparison with the control: no significant change
[6]; sensitized animals
  rosette number in comparison with the control: significant increase
[7]
  improving the neurocerebral performances: active
[8]
  sexual behaviour: favourable influence
